Assay results taken from patent US7919616B2, “Carbapenem compound” (priority 2005, dated 2011).

Tests used:
[1] = Stability test of compound (Ia) in crystalline state (purity by HPLC on storage); assay type: physicochemical; settings: 20° C. and 40° C., after 6, 17, 21 and 31 days
Description: Stability Test of Compound (Ia) in Crystalline State
About 2 g of the compound (Ia) in a crystalline form which was obtained in the same way as Example 1 was placed in sample bottles, and the sample bottles were stored at room temperature (about 20° C.) and in a room maintained at a temperature of about 40° C. Taking the original purity as 100%, after every several number of days, the purity of the compound (Ia) was measured using high-performance liquid chromatography (HPLC). The HPLC measurement conditions are shown below.
Solvent delivery system: LC-10A (manufactured by Shimadzu Corporation)
UV, VIS detector: SPD-10A (manufactured by Shimadzu Corporation)
Detection wavelength: 215 nm
Column heater: Sugai U-620 (used at 40° C., Sugai Chemical Industry Co., Ltd.)
Column: Inertsil® ODS-2 (4.6 mm diameter×250 mm length, GL Sciences, Inc.)

[2] = disclosed in Patent Document 1; cited from earlier work

| SMILES | stability of the crystalline form [1] | stability in the crystalline form [2] |
| --- | --- | --- |
| C=CCOC(=O)C1=C(OP(=O)(OCC(Cl)(Cl)Cl)OCC(Cl)(Cl)Cl)[C@H](C)[C@@H]2[C@@H]([C@@H](C)O)C(=O)N12 [compound (Ia), allyl-(1R,5R,6S)-2-[bis(2,2,2-trichloroethyl)phosphoryloxy]-6-[(R)-1-hydroxyethyl]-1-methyl-carbapenem-3-carboxylate] | very stable without a decrease in purity |  |
| C[C@@H](O)[C@H]1C(=O)N2C(C(=O)OCc3ccc([N+](=O)[O-])cc3)=C(OP(=O)(Oc3ccccc3)Oc3ccccc3)[C@H](C)[C@H]12 [compound (Ib)] |  | excellent stability in the crystalline form |
